Measured values: patent US20050260126A1 (priority 2002, published 2005)

How the values were obtained:
ScN2a cells = conditions: for Concentration of inhibiting cell proliferation TC: mouse
[1] = tested on: abnormal prion proteins in ScN2a cells with persistent infection of scrapie; assay: cells; format: cell-based, mouse; conditions: for IC50: Mus musculus, ScN2a, 96 h, read-out: Inhibitory effects on producing abnormal prion protein IC50; for Inhibitory effects on producing abnormal prion proteins (in words): ScN2a cells

| Structure (SMILES) | TC and safety concentration margin (in words) (ScN2a cells) | Concentration of inhibiting cell proliferation TC (ScN2a cells) [µM] | IC50 [1] [nM] | Inhibitory effects on producing abnormal prion proteins (in words) [1] |
| --- | --- | --- | --- | --- |
| CN(C)c1ccc(/C=C/c2nc3cc([N+](=O)[O-])ccc3o2)cc1 [BF-135, 2-(4-dimethylamino) styryl-5-nitrobenzoxazole] | higher TCs, therefore higher safety concentration margins | 100 | 1 | highly inhibitory effects |
| CN(C)c1ccc(/C=C/c2nccn2C)cc1 [BF-138, 2-[2-(4-dimethylamino-phenyl)ethenyl]-1-methylimidazole] |  | 100 | 100 |  |
| Nc1ccc(-c2nc3ccc(O)cc3s2)cc1 [BF-160, 2-(4-aminophenyl)-6-hydroxybenzothiazole] |  | 10 | 10 |  |
| CN(C)c1ccc2cc(-c3nc4cc(F)ccc4o3)cnc2c1 [BF-161, 5-fluoro-2-(7-dimethyl-aminoquinolin-3-yl)-benzoxazole] |  | 100 | 10 |  |
| CN(C)c1ncc(-c2ccc3ccccc3n2)o1 [BF-221, 2-(2-dimethylamino-oxazol-5-yl)quinoline] |  | >10 | 80 |  |
| C(=C\c1cncs1)/c1nc2ccccc2o1 [BF-234] |  | >10 | 40 |  |
| Nc1ccc(C(=O)Nc2ccc(-c3nc4cc(N)ccc4o3)cc2)cc1 [Compound N-220, 4-(5-aminobenzoxazol-2-yl)-N-(4-amino-benzoyl)aniline] |  | 10 | 1 | highly inhibitory effects |
| Nc1ccc(-c2nc3cc(Cc4ccc5oc(-c6ccc(N)cc6)nc5c4)ccc3o2)cc1 [Compound N-221] |  | >10 | 1 | highly inhibitory effects |
| Nc1ccc(-c2nc3ccc(N)cc3s2)cc1 [Compound N-224, 2-(4-aminophenyl)-6-aminobenzothiazole] |  | >10 | 1 | highly inhibitory effects |
| Nc1ccc(-c2nc3cc(N)ccc3o2)cc1 [Compound N-225, 2-(4-aminophenyl)-5-aminobenzoxazole] |  | >10 | 100 |  |
| Nc1ccc(-c2nc3ccc(N)cc3o2)cc1 [Compound N-226, 2-(4-aminophenyl)-6-aminobenzoxazole] |  | >10 | 100 |  |
| Nc1ccc(-c2nc3cc(N)ccc3s2)cc1 [Compound N-231, 2-(4-aminophenyl)-5-aminobenzothiazole] |  | 10 | 10 |  |
| Nc1ccc(-c2nc3cc(N)ccc3s2)c(O)c1 [Compound N-232, 2-(4-amino-2-hydroxy-phenyl)-5-amino-benzothiazole] |  | 10 | 1 | highly inhibitory effects |
| Nc1ccc(C(=O)Nc2ccc3nc(-c4cc(Cl)c(NC(=O)c5ccc(N)cc5)c(Cl)c4)[nH]c3c2Cl)cc1 [Compound N-233, 4-[6-(N′-(4-amino-benzoyl)amino)-7-chlorobenzimidazol-2-yl]-N-(4-aminobenzoyl)-2,6-dichloroaniline] |  | 10 | 100 |  |
| Nc1ccc(-c2nc3ccc(N)c(Cl)c3[nH]2)cc1 [Compound N-234, 2-(4-aminophenyl)-7-chloro-6-amino-benzimidazole] |  | >10 | 100 |  |
| Cc1cc(N)cc2nc(-c3ccc(N)c(Cl)c3)[nH]c12 [Compound N-240, 2-(4-amino-3-chloro-phenyl)-5-amino-7-methylbenzimidazole] |  | 10 | 100 |  |
| Nc1ccc(-c2nc3cc(Oc4ccc5[nH]c(-c6ccc(N)cc6)nc5c4)ccc3[nH]2)cc1 [Compound N-241] |  | 10 | 10 |  |
